Laboratory results reported in ChEMBL document CHEMBL3758129, “Design, synthesis and anti-HIV evaluation of novel diarylpyridine derivatives targeting the entrance channel of NNRTI binding pocket” (Eur J Med Chem, 2016).

What was measured:
[1] = test system: Human immunodeficiency virus 1; assay: Antiviral activity against wild type HIV1 3B infected in human MT4 cells assessed as reduction of virus-induced cytopathic effect after 5 days by MTT assay; type: functional, organism-based; conditions: Human immunodeficiency virus 1, 3B, MT4, 120 h
[2] = test system: Human immunodeficiency virus 2; assay: Antiviral activity against wild type HIV2 ROD infected in human MT4 cells assessed as reduction of virus-induced cytopathic effect after 5 days by MTT assay; type: functional, organism-based; conditions: Human immunodeficiency virus 2, ISOLATE ROD, MT4, 120 h
[3] = Selectivity index, ratio of CC50 for human MT4 cells to EC50 for wild type HIV1 3B infected in human MT4 cells; type: toxicity, cell-based; conditions: read-out: Ratio CC50/EC50
[4] = Cytotoxicity against human MT4 cells assessed as reduction in viability of mock infected cells after 5 days MTT assay; type: cell-based
[5] = Selectivity index, ratio of CC50 for human MT4 cells to EC50 for wild type HIV2 ROD infected in human MT4 cells; type: toxicity, cell-based; conditions: read-out: Ratio CC50/EC50
[6] = test system: Human immunodeficiency virus 1; assay: Antiviral activity against HIV1 […] expressing reverse transcriptase F227L/V106A double mutant infected in human MT4 cells assessed as reduction of virus-induced cytopathic effect after 5 days by MTT assay; type: functional, organism-based; conditions: Human immunodeficiency virus 1, MT4, 120 h
[7] = test system: Human immunodeficiency virus 1; assay: Antiviral activity against HIV1 3B expressing reverse transcriptase Y188L mutant infected in human MT4 cells assessed as reduction of virus-induced cytopathic effect after 5 days by MTT assay; type: functional, organism-based; conditions: Human immunodeficiency virus 1, 3B, MT4, 120 h
[8] = test system: Human immunodeficiency virus 1; assay: Antiviral activity against HIV1 3B expressing reverse transcriptase Y181C mutant infected in human MT4 cells assessed as reduction of virus-induced cytopathic effect after 5 days by MTT assay; type: functional, organism-based; conditions: Human immunodeficiency virus 1, 3B, MT4, 120 h
[9] = test system: Human immunodeficiency virus 1; assay: Antiviral activity against HIV1 3B expressing reverse transcriptase L100I mutant infected in human MT4 cells assessed as reduction of virus-induced cytopathic effect after 5 days by MTT assay; type: functional, organism-based; conditions: Human immunodeficiency virus 1, 3B, MT4, 120 h
[10] = test system: Human immunodeficiency virus 1; assay: Antiviral activity against HIV1 3B expressing reverse transcriptase E138K mutant infected in human MT4 cells assessed as reduction of virus-induced cytopathic effect after 5 days by MTT assay; type: functional, organism-based; conditions: Human immunodeficiency virus 1, 3B, MT4, 120 h
[11] = test system: Human immunodeficiency virus 1; assay: Antiviral activity against HIV1 3B expressing reverse transcriptase K103N mutant infected in human MT4 cells assessed as reduction of virus-induced cytopathic effect after 5 days by MTT assay; type: functional, organism-based; conditions: Human immunodeficiency virus 1, 3B, MT4, 120 h
[12] = test system: Human immunodeficiency virus 1; assay: Antiviral activity against HIV1 RES056 infected in human MT4 cells assessed as reduction of virus-induced cytopathic effect after 5 days by MTT assay; type: functional, organism-based; conditions: Human immunodeficiency virus 1, RES056, MT4, 120 h
[13] = molecular target: Human immunodeficiency virus type 1 reverse transcriptase (Human immunodeficiency virus 1, UniProt Q72547); assay: Inhibition of HIV1 reverse transcriptase assessed as reduction in biotin-dUTP incorporation using poly(rA)-oligo(dT) as template/primer and digoxigenin-dUTP/biotin-dUTP/dTTP nucleotides incubated for 1 hr by ELISA
[14] = test system: Human immunodeficiency virus 1; assay: Potency index, ratio of efavirenz EC50 to compound EC50 for antiviral activity against HIV1 3B expressing reverse transcriptase K103N mutant infected in human MT4 cells; type: functional
[15] = test system: Human immunodeficiency virus 1; assay: Potency index, ratio of delavirdine EC50 to compound EC50 for antiviral activity against HIV1 3B expressing reverse transcriptase K103N mutant infected in human MT4 cells; type: functional
[16] = test system: Human immunodeficiency virus 1; assay: Potency index, ratio of nevirapine EC50 to compound EC50 for antiviral activity against HIV1 3B expressing reverse transcriptase K103N mutant infected in human MT4 cells; type: functional

Row | IC50 [13] [µM] | SMILES | EC50 [1] [µM] | EC50 [2] [µM] | selectivity ratio [3] | CC50 at 120 h [4] [µM] | selectivity ratio [5] | EC50 [6] [µM] | EC50 [7] [µM] | EC50 [8] [µM] | EC50 [9] [µM] | EC50 [10] [µM] | EC50 [11] [µM] | EC50 [12] [µM] | Ratio EC50 [14] | Ratio EC50 [15] | Ratio EC50 [16]
1 |  | C=CCNc1cc(Oc2c(C)cc(C#N)cc2C)cc(Nc2ccc(C#N)cc2)n1 | 0.4 | > 8.77 | 55 | 22.2 | < 1 |  |  |  |  |  |  |  |  |  | 
2 |  | Cc1cc(C)c(Oc2cc(NCCC#N)nc(Nc3ccc(C#N)cc3)c2)c(C)c1 | 0.24 | > 2.1 | 22 | 5.3 | < 1 |  |  |  |  |  |  |  |  |  | 
3 |  | O=C1Nc2ccc(Cl)cc2[C@@](C#CC2CC2)(C(F)(F)F)O1 [EFAVIRENZ] |  |  |  |  |  | 0.21 | 0.34 | 0.0068 | 0.1 |  |  |  |  |  | 
4 |  | Cc1cc(C)c(Oc2cc(NCCN3CCNCC3)nc(Nc3ccc(C#N)cc3)c2)c(C)c1 | 0.71 | > 1.65 | 5 | 3.61 | < 1 |  |  |  |  |  |  |  |  |  | 
5 |  | Cc1ccnc2c1NC(=O)c1cccnc1N2C1CC1 [NEVIRAPINE] | 0.26 |  |  |  |  |  | 9.61 |  | 0.83 |  |  |  |  |  | 
6 |  | Cc1cc(C)c(Oc2cc(NCC3CCCO3)nc(Nc3ccc(C#N)cc3)c2)c(C)c1 (centres undefined) | 1.79 | > 125 | > 163 | > 292 | < 1 |  |  |  |  |  |  |  |  |  | 
7 |  | Cc1cc(C#N)cc(C)c1Oc1cc(Cl)nc(Nc2ccc(C#N)cc2)c1 | 0.84 | > 8.55 | 27 | 22.9 | < 1 |  |  |  |  |  |  |  |  |  | 
8 |  | Cc1cc(C#N)cc(C)c1Oc1cc(NCCN2CCNCC2)nc(Nc2ccc(C#N)cc2)c1 | 0.43 | > 2.07 | 10 | 4.43 | < 1 |  |  |  |  |  |  |  |  |  | 
9 |  | CC(C)Nc1cccnc1N1CCN(C(=O)c2cc3cc(NS(C)(=O)=O)ccc3[nH]2)CC1 [DELAVIRDINE] | 0.033 |  | 30.4 |  | 733 | 1.87 | 0.69 | 2.03 | 2.1 | 0.043 | 2.48 |  |  |  | 
10 |  | Cc1cc(C#N)cc(C)c1Oc1cc(NCCC#N)nc(Nc2ccc(C#N)cc2)c1 | 0.1 | > 3.21 | 75 | 7.85 | < 1 | > 7.85 | > 7.85 | > 7.85 | 1.34 | 0.94 | 0.18 | 11.1 |  |  | 
11 | 3.4 | Cc1cc(C#N)cc(C)c1Oc1cc(NCCN(C)C)nc(Nc2ccc(C#N)cc2)c1 | 0.041 | > 1.99 | 114 | 4.67 | < 1 |  |  |  |  |  |  |  |  |  | 
12 |  | Cc1cn([C@H]2C[C@H](N=[N+]=[N-])[C@@H](CO)O2)c(=O)[nH]c1=O [ZIDOVUDINE] | 0.0067 |  | > 7.06 |  | > 1050 | 0.0048 | 0.011 | 0.0071 | 0.0052 | 0.013 | 0.0083 |  |  |  | 
13 |  | Cc1cc(C)c(Oc2cc(Cl)nc(Nc3ccc(C#N)cc3)c2)c(C)c1 | 0.37 | > 2.03 | 15 | 5.59 | < 1 |  |  |  |  |  |  |  |  |  | 
14 |  | Cc1cc(C)c(Oc2cc(Nc3ccc(C#N)cc3)nc(NC3CC3)c2)c(C)c1 | 0.035 | > 2.58 | 190 | 6.71 | < 1 |  |  |  |  |  |  |  |  |  | 
15 |  | COC(CNc1cc(Oc2c(C)cc(C#N)cc2C)cc(Nc2ccc(C#N)cc2)n1)OC | 0.84 | > 125 | > 335 | > 282 | < 1 |  |  |  |  |  |  |  |  |  | 
16 |  | Cc1cc(C#N)cc(C)c1Oc1cc(NCC2CCCO2)nc(Nc2ccc(C#N)cc2)c1 (centres undefined) | 1.32 | > 125 | > 216 | > 285 | < 1 |  |  |  |  |  |  |  |  |  | 
17 |  | COCCNc1cc(Oc2c(C)cc(C)cc2C)cc(Nc2ccc(C#N)cc2)n1 | 0.87 | > 22.9 | 65 | 56.6 | < 1 |  |  |  |  |  |  |  |  |  | 
18 |  | Cc1cc(C)c(Oc2cc(NCCN(C)C)nc(Nc3ccc(C#N)cc3)c2)c(C)c1 | 0.043 | > 1.94 | 109 | 4.67 | < 1 |  |  |  |  |  |  |  |  |  | 
19 |  | Cc1cc(C)c(Oc2cc(NCC3CC3)nc(Nc3ccc(C#N)cc3)c2)c(C)c1 | 1.99 | > 13.1 | 17 | 32.9 | < 1 |  |  |  |  |  |  |  |  |  | 
20 |  | COC(CNc1cc(Oc2c(C)cc(C)cc2C)cc(Nc2ccc(C#N)cc2)n1)OC | 1.63 | > 14.5 | 21 | 33.5 | < 1 |  |  |  |  |  |  |  |  |  | 
21 |  | Cc1cc(C#N)cc(C)c1Oc1cc(NCCN2CCOCC2)nc(Nc2ccc(C#N)cc2)c1 | 0.082 | > 17.4 | 451 | 37.2 | < 1 | 6.04 | 8.1 | 7.55 | 8.46 | 6.41 | 0.049 | 4.72 | 3 | 50 | 140
22 |  | Cc1cc(C#N)cc(C)c1Oc1cc(NCC2CC2)nc(Nc2ccc(C#N)cc2)c1 | 1.52 | > 125 | > 201 | > 305 | < 1 |  |  |  |  |  |  |  |  |  | 
23 |  | Cc1cc(C)c(Oc2cc(NCCN3CCOCC3)nc(Nc3ccc(C#N)cc3)c2)c(C)c1 | 0.072 | > 11.1 | 339 | 24.3 | < 1 | 4.52 | 9.45 | 4.93 | 5.8 | 4.59 | 0.14 | 8.31 |  |  | 
24 |  | COCCNc1cc(Oc2c(C)cc(C#N)cc2C)cc(Nc2ccc(C#N)cc2)n1 | 0.25 | > 40.7 | ≥ 394 | ≥ 98.5 | < 1 |  |  |  |  |  |  |  |  |  | 
25 |  | C=CCNc1cc(Oc2c(C)cc(C)cc2C)cc(Nc2ccc(C#N)cc2)n1 | 0.7 | > 9.33 | 35 | 24.3 | < 1 |  |  |  |  |  |  |  |  |  | 
26 |  | Cc1cc(C#N)cc(C)c1Oc1cc(Nc2ccc(C#N)cc2)nc(NC2CC2)c1 | 0.22 | > 4.06 | 47 | 10.3 | < 1 |  |  |  |  |  |  |  |  |  | 
27 |  | Cc1cc(C#N)cc(C)c1Oc1nc(Nc2ccc(C#N)cc2)nc(N)c1Br [ETRAVIRINE] | 0.0035 |  |  |  |  |  | 0.022 |  | 0.0066 |  | 0.0032 |  |  |  | 
